Key:
[1] = biological target: T1, Broad substrate specificity ATP-binding cassette transporter ABCG2 (Homo sapiens, UniProt Q9UNQ0); assay: TP_TRANSPORTER: inhibition of Topotecan efflux (Topotecan: 20 uM, beta-Estradiol: 100 uM) in BCRP-expressing K562 cells: flow cytometric analysis; type: functional, cell-based; conditions: k562, 100 µM
T1 sequence (Q9UNQ0 whole entry): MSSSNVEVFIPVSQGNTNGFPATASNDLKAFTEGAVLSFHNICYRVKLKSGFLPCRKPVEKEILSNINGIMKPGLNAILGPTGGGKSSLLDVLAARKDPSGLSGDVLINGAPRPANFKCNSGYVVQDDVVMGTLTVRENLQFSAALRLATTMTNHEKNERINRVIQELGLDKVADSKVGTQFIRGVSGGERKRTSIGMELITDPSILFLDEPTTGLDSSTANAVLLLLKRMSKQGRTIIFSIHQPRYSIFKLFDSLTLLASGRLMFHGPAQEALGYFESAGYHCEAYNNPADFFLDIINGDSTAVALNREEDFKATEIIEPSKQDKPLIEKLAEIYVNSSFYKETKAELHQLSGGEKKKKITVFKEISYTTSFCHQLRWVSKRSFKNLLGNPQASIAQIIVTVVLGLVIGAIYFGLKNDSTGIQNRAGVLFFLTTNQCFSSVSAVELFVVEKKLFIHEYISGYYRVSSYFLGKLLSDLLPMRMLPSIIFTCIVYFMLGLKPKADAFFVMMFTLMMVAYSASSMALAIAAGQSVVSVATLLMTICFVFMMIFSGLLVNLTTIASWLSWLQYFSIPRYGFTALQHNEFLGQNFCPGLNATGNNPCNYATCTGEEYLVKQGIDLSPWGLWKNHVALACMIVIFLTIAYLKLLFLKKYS

[2] = biological target: T1, Broad substrate specificity ATP-binding cassette transporter ABCG2; assay: TP_TRANSPORTER: inhibition of Topotecan efflux (Topotecan: 20 uM, Estrone: 100 uM) in BCRP-expressing K562 cells: flow cytometric analysis; type: functional, cell-based; conditions: k562, 100 µM

Activity [1]	Activity [2]	SMILES
inhibitor [+]		C[C@]12CC[C@@H]3c4ccc(O)cc4CC[C@H]3[C@@H]1CC[C@@H]2O [ESTRADIOL]
	inhibitor [+]	C[C@]12CC[C@@H]3c4ccc(O)cc4CC[C@H]3[C@@H]1CCC2=O [ESTRONE]

Source: ChEMBL document CHEMBL2074456, “Estrone and 17beta-estradiol reverse breast cancer resistance protein-mediated multidrug resistance” (Jpn J Cancer Res, 2002)
